Test results published in ChEMBL document CHEMBL1139511, “AFMoC enhances predictivity of 3D QSAR: a case study with DOXP-reductoisomerase” (J Med Chem, 2005).

What follows are compounds tested against T1, 1-deoxy-D-xylulose 5-phosphate reductoisomerase (Escherichia coli K-12, UniProt P45568) (assay: Inhibitory concentration against DOXP reductoisomerase).
T1 sequence (P45568 whole entry): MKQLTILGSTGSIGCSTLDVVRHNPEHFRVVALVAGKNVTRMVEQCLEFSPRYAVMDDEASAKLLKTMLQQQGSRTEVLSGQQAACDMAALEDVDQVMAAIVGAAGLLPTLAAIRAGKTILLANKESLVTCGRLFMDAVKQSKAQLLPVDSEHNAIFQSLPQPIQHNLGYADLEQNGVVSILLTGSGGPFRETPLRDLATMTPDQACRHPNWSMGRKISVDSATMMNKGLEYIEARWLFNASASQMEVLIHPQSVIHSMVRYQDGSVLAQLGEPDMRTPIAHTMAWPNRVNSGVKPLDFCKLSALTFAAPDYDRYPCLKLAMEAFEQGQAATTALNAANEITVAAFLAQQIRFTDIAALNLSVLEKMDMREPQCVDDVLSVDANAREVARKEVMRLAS

| Structure (SMILES) | IC50 [µM] |
| --- | --- |
| CC(=O)N(O)CCCP(=O)(O)O [FR-900098] | 0.0282 |
| CC(=O)N(O)C/C=C/P(=O)(O)O | 0.0646 |
| CCCC(CCN(O)C=O)P(=O)(O)O (stereo unspecified) | 8.13 |
| CCC(CCN(O)C(C)=O)P(=O)(O)O (stereo unspecified) | 0.708 |
| NC(CCP(=O)(O)O)C(=O)NO (stereo unspecified) | 9.77 |
| O=C(CNCP(=O)(O)O)NO | 16.2 |
| O=C(C(Cl)Cl)N(O)CCCP(=O)(O)O | 0.178 |
| O=C(c1ccccc1O)N(O)C1CCC(P(=O)(O)O)C1 (stereo unspecified) | 50.1 |
| CC(=O)N(O)C1CCC(P(=O)(O)O)C1 (stereo unspecified) | 2.34 |
| CC(C)C(CCN(O)C=O)P(=O)(O)O (stereo unspecified) | 6.61 |
| CC(=O)N(O)CC(C)CP(=O)(O)O (stereo unspecified) | 0.646 |
| O=C(CCCOc1ccccc1)NCC(=O)N(O)CCCP(=O)(O)O | 1 |
| CC(=O)N(O)CCC(C)P(=O)(O)O (stereo unspecified) | 0.0537 |
| O=C(CCCP(=O)(O)O)NO | 0.257 |
| CCOC(=O)C(=O)N(O)C1CCC(P(=O)(O)O)C1 (stereo unspecified) | 15.8 |
| CCC(CCN(O)C=O)P(=O)(O)O (stereo unspecified) | 1.78 |
| O=C(CN(Cc1ccccc1)CP(=O)(O)O)NO | 1.82 |
| O=C(C1CC1)N(O)CCCP(=O)(O)O | 36.3 |
| O=CN(O)CC(Cc1ccccc1)CP(=O)(O)O (stereo unspecified) | 6.46 |
| O=C(CCCc1c[nH]c2ccccc12)NCC(=O)N(O)CCCP(=O)(O)O | 17 |
| NCCC(=O)N(O)CCCP(=O)(O)O | 15.8 |
| CS(=O)(=O)N(O)CCCP(=O)(O)O | 38 |
| CN(CC(=O)NO)CP(=O)(O)O | 31.6 |

The remaining lines, values ahead:

| IC50 [µM] | Structure (SMILES) |
| --- | --- |
| 2.4 | O=C(c1ccc(-c2ccccc2)cc1)N(O)CCCP(=O)(O)O |
| 20 | CCC(C(=O)NCC(=O)N(O)CCCP(=O)(O)O)c1ccccc1 (stereo unspecified) |
| 50.1 | CC(O)CC(=O)N(O)CCCP(=O)(O)O (stereo unspecified) |
| 0.229 | O=C(c1cccc2ccccc12)N(O)CCCP(=O)(O)O |
| 25.7 | NCCCC(=O)N(O)CCCP(=O)(O)O |
| 100 | COC(=O)c1ccccc1C(=O)N(O)CCCP(=O)(O)O |
| 40.7 | NCCCCCC(=O)N(O)CCCP(=O)(O)O |
| 24 | CC(C)CC(=O)N(O)CCCP(=O)(O)O |
| 0.1 | O=C(c1ccccc1)N(O)CCCP(=O)(O)O |
| 11 | CC(C)(C)C(=O)N(O)CCCP(=O)(O)O |
| 7.08 | O=C(NCC(=O)N(O)CCCP(=O)(O)O)C1CC1 |
| 14.1 | COc1ccc(CC(=O)NCC(=O)N(O)CCCP(=O)(O)O)cc1OC |
| 1.7 | CCCCCCCC(=O)N(O)CCCP(=O)(O)O |
| 1.82 | O=C(c1ccccc1O)N(O)CCCP(=O)(O)O |
| 6.61 | CCCC(CCN(O)C(C)=O)P(=O)(O)O (stereo unspecified) |
| 50.1 | O=C(CCc1ccccc1)N(O)CCCP(=O)(O)O |
| 5.13 | O=C(NCC(=O)N(O)CCCP(=O)(O)O)c1ccc(OC(F)(F)F)cc1 |
| 14.1 | O=C(N(O)CCCP(=O)(O)O)C(F)(F)F |
